Source: patent US20200268768A1, “CENICRIVIROC COMBINATION THERAPY FOR THE TREATMENT OF FIBROSIS” (Tobira Therapeutics, Inc., priority 2015, published 2020)
“Also recorded” adds a separate entry of the source.

Legend:
[1] = system: STAM mouse model of Non-alcoholic Steatohepatitis; experiment: STAM mouse model of NASH, anti-HCC effects at week 18; conditions: for Mice that died (survival analysis): 6 to 18 weeks; for Body weight / CD31-positive area / Liver weight / Liver-to-body weight ratio / Maximum diameter of visible tumor nodules / Number of visible tumor nodules: mean ± SD
Method: Group 1-Vehicle: Eighteen NASH mice were orally administered vehicle at a volume of 10 mL/kg twice daily (9:00 and 19:00) from 6 weeks of age.

[2] = system: thioacetamide (TAA)-induced hepatic fibrosis; experiment: Rat model of thioacetamide-induced liver fibrosis and cirrhosis; assay type: in vivo, Sprague-Dawley rats; conditions: for Reduction of ca-SMA / Reduction of collagen type 1 protein levels / Reduction of fibrosis by collagen morphometry: first 8 weeks
Method: Fibrosis was induced in male Sprague-Dawley rats by intraperitoneal administration of TAA 150 mg/kg 3 times/week for 8 weeks. […] Biochemical, gene expression and histologic evaluations of the liver were conducted.

Mouse toxicity studies = assay type: in vivo; conditions: CVC doses up to 2000 mg/kg/day; no surgical procedures
[3] = system: HIV-1 infected adult subjects; experiment: Study 202 biomarkers of inflammation; assay type: in vivo, human
Method: As an exploratory analysis, levels of inflammation biomarkers MCP-1, sCD14, high sensitivity C-reactive protein [hs-CRP], interleukin-6 [IL-6], D-dimer, and fibrinogen) were measured. Baseline values and changes from baseline at Week 24 and Week 48 of MCP-1, sCD14, hs-CRP, IL-6, D-dimer, and fibrinogen are summarized in Table 22.
The sCD14 samples were originally analyzed in 2 separate batches: Batch 1 included samples leading up to the Week 24 primary analysis and Batch 2 included Week 32 and Week 48 (end of study) samples. A repeat analysis of archived samples all analyzed in one batch was conducted for consistency in analysis across time points. To control for the effects of covariates, a linear mixed-model repeated-measures analysis was conducted on the changes from baseline in sCD14 (analysis dated September 2013).

HIV-1 infected subjects = experiment: Study 202 safety and tolerability; assay type: in vivo, human; conditions: 115 subjects, CVC 100 mg and 200 mg for up to 48 weeks
[4] = Chronic (3- and 9-month) monkey toxicity studies; assay type: in vivo
CCR5 = CCR5 (Homo sapiens, UniProt P51681); experiment: CCR5 antagonism in in vitro, ex vivo and clinical studies; conditions: Studies 652-2-201 and 652-2-202
CCR5, sequence (P51681 whole entry): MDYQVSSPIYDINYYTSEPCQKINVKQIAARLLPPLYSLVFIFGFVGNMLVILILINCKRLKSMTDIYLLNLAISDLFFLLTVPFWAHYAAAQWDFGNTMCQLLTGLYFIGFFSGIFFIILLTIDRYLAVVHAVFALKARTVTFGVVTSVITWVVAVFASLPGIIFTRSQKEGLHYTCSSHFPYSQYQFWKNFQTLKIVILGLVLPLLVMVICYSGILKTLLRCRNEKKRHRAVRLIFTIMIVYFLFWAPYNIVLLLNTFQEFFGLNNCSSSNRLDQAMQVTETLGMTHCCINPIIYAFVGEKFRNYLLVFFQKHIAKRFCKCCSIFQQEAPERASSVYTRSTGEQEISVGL
Source text: Clinical evidence of CCR2 and CCR5 antagonism was established by measuring changes from baseline in plasma MCP-1 (a ligand of CCR2) concentrations and changes in plasma HIV-RNA (CCR5 co-receptor required for HIV entry), respectively, in these 2 Phase 2 Studies.

[5] = CVC-high 100 mg/kg/day oral, week 18
[6] = CVC-high 100 mg/kg/day oral, week 18, listed as Cenicriviroc
[7] = CVC-low 20 mg/kg/day oral, week 18
[8] = CVC-low 20 mg/kg/day oral, week 18, listed as Cenicriviroc
[9] = Group 1a: CVC 30 mg/kg/day concurrently with TAA
[10] = Group 1b: CVC 100 mg/kg/day concurrently with TAA

## CCCCOCCOc1ccc(-c2ccc3c(c2)C=C(C(=O)Nc2ccc([S@@+]([O-])Cc4cncn4CCC)cc2)CCCN3CC(C)C)cc1 [CVC, (S)-8-[4-(2-Butoxyethoxy)phenyl]-1-isobutyl-N-(4-{[(1-propyl-1H-imidazol-5-yl)methyl]sulfinyl}phenyl)-1,2,3,4-tetrahydro-1-benzazocine-5-carboxamide]
[1]; CVC treatment groups, week 18
  Effect on NASH-derived HCC: not observed
[1]; CVC-high 100 mg/kg/day oral
  Mice that died (survival analysis): Five out of twelve
[1]; [5]
  Mice with GS-positive nodules: seven out of seven
  Mice with HCC lesions (HE staining): six out of seven
  Body weight: 20.8 ± 2.7 g
  CD31-positive area: 3.68±1.37%
  Liver weight: 1817 ± 446 mg
  Liver-to-body weight ratio: 8.8±2.3%
  Maximum diameter of visible tumor nodules: 5.3±5.1 mm
  Number of visible tumor nodules: 3.6±2.5
[1]; [6]
  Body weight: 20.8 ± 2.7 g
  CD31-positive area: 3.68 ± 1.37%
  Liver weight: 1817 ± 446 mg
  Liver-to-body weight ratio: 8.8 ± 2.3%
  Maximum diameter of visible tumor nodules: 5.3 ± 5.1 mm
  Number of visible tumor nodules: 3.6 ± 2.5
[1]; CVC-low 20 mg/kg/day oral
  Mice that died (survival analysis): Six out of twelve
[1]; [7]
  Mice with GS-positive nodules: five out of six
  Mice with HCC lesions (HE staining): five out of six
  Body weight: 22.9 ± 3.5 g
  CD31-positive area: 1.47±1.10%
  Liver weight: 1837 ± 410 mg
  Liver-to-body weight ratio: 8.3±2.8%
  Maximum diameter of visible tumor nodules: 4.8±5.4 mm
  Number of visible tumor nodules: 1.5±1.9
[1]; [8]
  Body weight: 22.9 ± 3.5 g
  CD31-positive area: 1.47 ± 1.10%
  Liver weight: 1837 ± 410 mg
  Liver-to-body weight ratio: 8.3 ± 2.8%
  Maximum diameter of visible tumor nodules: 4.8 ± 5.4 mm
  Number of visible tumor nodules: 1.5 ± 1.9
[2]; [9]
  Reduction of ca-SMA: 17%
  Reduction of collagen type 1 protein levels: 30%
  Reduction of fibrosis by collagen morphometry: 49%
[2]; [10]
  Reduction of ca-SMA: 22%
  Reduction of collagen type 1 protein levels: 12%
  Reduction of fibrosis by collagen morphometry: 38%
[2]; Group 2a: CVC 30 mg/kg/day during Weeks 4-8 (emerging fibrosis)
  Reduction in collagen: 36%
[2]; Group 3: treatment Weeks 8-12, cirrhosis present
  Effect on fibrogenic gene expression or fibrosis: no significant effect of CVC on fibrogenic gene expression or fibrosis
Mouse toxicity studies
  Tolerability: well tolerated
[3]; CVC 100 mg, Week 12
  sCD14 (original values) change from baseline, mean: -140000 pg/mL
  sCD14 (original values) change from baseline, median: -160000 pg/mL
[3]; CVC 100 mg, Week 24
  D-dimer change from baseline, mean: -32 ng/mL
  D-dimer change from baseline, median: -1.0 ng/mL
  Fibrinogen change from baseline, mean: -3 mg/dL
  Fibrinogen change from baseline, median: -14 mg/dL
  IL-6 change from baseline, mean: 0.42 pg/mL
  IL-6 change from baseline, median: 0.00 pg/mL
  MCP-1 change from baseline, mean: 493 pg/mL
  MCP-1 change from baseline, median: 429 pg/mL
  hs-CRP change from baseline, mean: -0.16 mg/dL
  hs-CRP change from baseline, median: -0.03 mg/dL
  sCD14 (original values) change from baseline, mean: -190000 pg/mL
  sCD14 (original values) change from baseline, median: -180000 pg/mL
[3]; CVC 100 mg, Week 32
  sCD14 (original values) change from baseline, mean: 110000 pg/mL
  sCD14 (original values) change from baseline, median: 120000 pg/mL
[3]; CVC 100 mg, Week 48
  D-dimer change from baseline, mean: -41 ng/mL
  D-dimer change from baseline, median: -1.0 ng/mL
  Fibrinogen change from baseline, mean: 11 mg/dL
  Fibrinogen change from baseline, median: 15 mg/dL
  IL-6 change from baseline, mean: 0.29 pg/mL
  IL-6 change from baseline, median: 0.00 pg/mL
  MCP-1 change from baseline, mean: 636 pg/mL
  MCP-1 change from baseline, median: 523 pg/mL
  hs-CRP change from baseline, mean: -0.08 mg/dL
  hs-CRP change from baseline, median: -0.01 mg/dL
  sCD14 (original values) change from baseline, mean: 100000 pg/mL
  sCD14 (original values) change from baseline, median: 100000 pg/mL
[3]; CVC 200 mg, Week 12
  sCD14 (original values) change from baseline, mean: -230000 pg/mL
  sCD14 (original values) change from baseline, median: -210000 pg/mL
[3]; CVC 200 mg, Week 24
  D-dimer change from baseline, mean: -64 ng/mL
  D-dimer change from baseline, median: -50 ng/mL
  Fibrinogen change from baseline, mean: -7 mg/dL
  Fibrinogen change from baseline, median: -8 mg/dL
  IL-6 change from baseline, mean: 0.81 pg/mL
  IL-6 change from baseline, median: 0.00 pg/mL
  MCP-1 change from baseline, mean: 753 pg/mL
  MCP-1 change from baseline, median: 695 pg/mL
  hs-CRP change from baseline, mean: -0.04 mg/dL
  hs-CRP change from baseline, median: -0.04 mg/dL
  sCD14 (original values) change from baseline, mean: -230000 pg/mL
  sCD14 (original values) change from baseline, median: -190000 pg/mL
[3]; CVC 200 mg, Week 32
  sCD14 (original values) change from baseline, mean: 20000 pg/mL
  sCD14 (original values) change from baseline, median: -20000 pg/mL
[3]; CVC 200 mg, Week 48
  D-dimer change from baseline, mean: -70 ng/mL
  D-dimer change from baseline, median: -50 ng/mL
  Fibrinogen change from baseline, mean: -10 mg/dL
  Fibrinogen change from baseline, median: -13 mg/dL
  IL-6 change from baseline, mean: -0.04 pg/mL
  IL-6 change from baseline, median: 0.00 pg/mL
  MCP-1 change from baseline, mean: 900 pg/mL
  MCP-1 change from baseline, median: 756 pg/mL
  hs-CRP change from baseline, mean: -0.18 mg/dL
  hs-CRP change from baseline, median: -0.04 mg/dL
  sCD14 (original values) change from baseline, mean: -40000 pg/mL
  sCD14 (original values) change from baseline, median: -40000 pg/mL
HIV-1 infected subjects
  Tolerability: generally well tolerated; also recorded: effective and well tolerated
[4]; 1000 mg/kg/day, chronic (3- and 9-month) monkey toxicity studies
  Plasma MCP-1 levels over controls: ~5 fold
[4]; high dose of 1000 mg/kg/day
  Inflammation in clinical pathology parameters or any tissue, including the liver, by microscopic evaluation: No indication of inflammation
CCR5
  Antagonism of CCR5: potent and concentration-dependent antagonism
